Assay results from patent publication US11337984B2, “Methods for treating, diagnosing and prognosing a haematological malignancy” (Institut de Recerca Contra La Leucèmia Josep Carreras, priority 2014, dated 2022).

System: HL-60, KG-1, MonoMac-1 and Kasumi-1 AML cell lines
Experiment: Cell viability of AML cell lines by flow cytometry (7-AAD/Hoechst, volumetric count)
Type: cell-based, human
Details: subtype-specific 5HTR antagonists, 0.1, 1 and 10 μM, 72 h
Method: FIG. 1. […] 10^6 HL-60, KG-1, MonoMac-1 and Kasumi-1 cells per mL in complete RPMI media were treated with 0.1, 1 and 10 μM Apomorphine for 72 h. […] Cells were stained with 7-aminoactinomycin D (7-AAD, CAS no. 7240-37-1) and Hoechst 33342 (CAS no. 23491-52-3) and analyzed by flow cytometry. […] Cell number was calculated by volumetric count. A. The mean (symbol) for each AML cell line and standard deviation (error bars) from 6 different biological replicates are represented. B. The average corresponding to the four different AML cell lines is represented. *p<0.05.
FIG. 2. […] Cell number was calculated by volumetric count. A. The mean (symbol) for each AML cell line and standard deviation (error bars) from 6 different biological replicates are represented. B. AML cell lines were treated with 10 μM Apomorphine or Methiothepin in the presence or absence of 5-CT or 5-HT. *p<0.05. Apo: apomorphine; Methio: methiothepine.
In order to test the anti-leukaemic effect of 5HTR antagonists, HL-60 (Collins, Gallo et al. Nature. 1977; 270(5635):347-9), MonoMac-1 (Steube, Teepe et al. Leuk Res. 1997; 21(4):327-35), KG-1 (Koeffler and Golde. Science. 1978; 200(4346):1153-4) and Kasumi-1 (Asou, Tashiro et al. Blood. 1991; 77(9):2031-6) AML (Acute Myeloid Leukaemia) cell lines were treated with the broad 5HTR antagonist Apomorphine (CAS no. 314-19-2) at different doses for 72 h. One million cells per mL were seeded in complete RPMI media supplemented with 10% fetal bovine serum in a 96-well plate. The concentration used for the Apomorphine treatment was 0.1, 1 and 10 μM.
The human 5HTR family is composed by 7 subtypes (from 1 to 7) of receptors […]. HL-60, KG-1, MonoMac-1 and Kasumi-1 AML cell lines were incubated with subtype-specific 5HTR antagonists: Apomorphine (type 1, 2 and 5), Methiothepin (type 1 and 2) (CAS no. 74611-28-2), Amperozide (type 2) (CAS no. 75558-90-6), GR113808 (type 4) (CAS no. 144625-51-4). 72 h after treatment, cell viability was determined by flow cytometry. Cells were stained with 7-AAD (CAS no. 7240-37-1) and Hoechst 33342 (CAS no. 23491-52-3). Viability cells were identified by 7-AAD staining exclusion and the presence of Hoechst positive stain. Cell counts were measured by volume. […] In fact, the anti-leukaemic effect was reversed in the presence of a competitive agonist such as the natural ligand 5-HT (CAS no. 153-98-0) or 5-CT (CAS no. 74885-72-6).

| Structure (SMILES) | cell death on AML cell lines |
| --- | --- |
| CCNC(=O)N1CCN(CCCC(c2ccc(F)cc2)c2ccc(F)cc2)CC1 [Amperozide, 4-[4,4-bis(4-fluorophenyl)butyl]-N-ethylpiperazine-1-carboxamide] | induced cell death |
| Cn1cc(C(=O)OCC2CCN(CCNS(C)(=O)=O)CC2)c2ccccc21 [GR113808] | Only Apomorphine, Methiothepin and Amperozide induced cell death |
